Measurements published in BindingDB's records for doi:10.1021/jm00065a013 (Washington University, 1993).
Values belong to the compound of their own block, whether it stands above or below them. *1 amine or outer side, *2 acyl side, *3 side chain or, on linkers, in order; H or OH if unused. Where a SMILES comes first, the peptide text is derived from it. Bridges are numbered along the chain shown (N, C = ends). Roman numbers before positions name the chains, in order. [ ]: non-standard residue; d: D form. Pro(4R-SH) = O=C([C@@H]1C[C@@H](S[*:3])CN1[*:1])[*:2]; Pro(4S-SH) = O=C([C@@H]1C[C@H](S[*:3])CN1[*:1])[*:2]; hCys = N[C@@H](CCS)C(=O)O; Sar = CNCC(=O)O

Molecular target: Type-2 angiotensin II receptor (Oryctolagus cuniculus)
Assay: In vitro binding affinity at angiotensin II (type 2) receptor in rabbit uterus.

Structure (SMILES): CNCC(=O)N[C@@H](CCCNC(=N)N)C(=O)N[C@H]1CCSSCC[C@@H](C(=O)N[C@@H](Cc2cnc[nH]2)C(=O)N2CCC[C@H]2C(=O)N[C@@H](Cc2ccccc2)C(=O)O)NC(=O)[C@H](Cc2ccc(O)cc2)NC1=O [2-({1-[2-{[11-[5-Guanidino-2-(2-methylamino-acetylamino)-pentanoylamino]-8-(4-hydroxy-benzyl)-7,10-dioxo-1,2-dithia-6,9-diaza-cyclotridecane-5-carbonyl]-amino}-3-(3H-imidazol-4-yl)-propionyl]-pyrrolidine-2-carbonyl}-amino)-3-phenyl-propionic acid] (H-[Sar]R[hCys]Y[hCys]HPF-OH; disulfide 3-5)
- IC50: 80 nM

Structure (SMILES): CNCC(=O)N[C@@H](CCCN=C(N)N)C(=O)N[C@H]1CSSC[C@@H](C(=O)N[C@@H](Cc2c[nH]cn2)C(=O)N2CCC[C@H]2C(=O)N[C@@H](Cc2ccccc2)C(=O)O)NC(=O)[C@H](Cc2ccc(O)cc2)NC(=O)[C@@H](NC(=O)[C@H](CCCN=C(N)N)NC(=O)CNC)CSSC[C@@H](C(=O)N[C@@H](Cc2c[nH]cn2)C(=O)N2CCC[C@H]2C(=O)N[C@@H](Cc2ccccc2)C(=O)O)NC(=O)[C@H](Cc2ccc(O)cc2)NC1=O [bis-c[Sar1-Arg2-Cys3-Tyr4-Cys5-His6-Pro7-Phe8](antiparallel)] (I: H-[Sar]RCYCHPF-OH / II: H-[Sar]RCYCHPF-OH; disulfide I:3-II:5, I:5-II:3)
- IC50: 65 nM

Structure (SMILES): CNCC(=O)N[C@@H](CCCNC(=N)N)C(=O)N[C@H]1CSS[C@@H]2C[C@@H](C(=O)N[C@@H](Cc3cnc[nH]3)C(=O)N3CCC[C@H]3C(=O)N[C@@H](Cc3ccccc3)C(=O)O)N(C2)C(=O)[C@H](Cc2ccc(O)cc2)NC1=O [c[Sar1-Arg2-Cys3-Tyr4-MPt5-His6-Pro7-Phe8]] (H-[Sar]RCY[Pro(4R-SH)]HPF-OH; disulfide 3-5)
- IC50: 0.82 nM

Structure (SMILES): CNCC(=O)N[C@@H](CCCNC(=N)N)C(=O)N1C[C@@H]2C[C@H]1C(=O)N[C@@H](Cc1ccc(O)cc1)C(=O)N[C@H](C(=O)N[C@@H](Cc1cnc[nH]1)C(=O)N1CCC[C@H]1C(=O)N[C@@H](Cc1ccccc1)C(=O)O)CSS2 [c[Sar1-Arg2-MPc3-Tyr4-Cys5-His6-Pro7-Phe8]] (H-[Sar]R[Pro(4S-SH)]YCHPF-OH; disulfide 3-5)
- IC50: 12 nM

The next lines start with the values.

- IC50: 25 nM
Structure (SMILES): CNCC(=O)N[C@@H](CCCNC(=N)N)C(=O)N1C[C@@H]2C[C@H]1C(=O)N[C@@H](Cc1ccc(O)cc1)C(=O)N[C@H](C(=O)N[C@@H](Cc1cnc[nH]1)C(=O)N1CCC[C@H]1C(=O)N[C@@H](Cc1ccccc1)C(=O)O)CSS[C@H]1C[C@@H](C(=O)N[C@@H](Cc3ccc(O)cc3)C(=O)N[C@H](C(=O)N[C@@H](Cc3cnc[nH]3)C(=O)N3CCC[C@H]3C(=O)N[C@@H](Cc3ccccc3)C(=O)O)CSS2)N(C(=O)[C@H](CCCNC(=N)N)NC(=O)CNC)C1 [bis c[Sar1-Arg2-MPc3-Tyr4-Cys5-His6-Pro7-Phe8]antiparallel] (I: H-[Sar]R[Pro(4S-SH)]YCHPF-OH / II: H-[Sar]R[Pro(4S-SH)]YCHPF-OH; disulfide I:3-II:5, I:5-II:3)

- IC50: 23 nM
Structure (SMILES): CNCC(=O)N[C@@H](CCCNC(=N)N)C(=O)N1C[C@@H]2C[C@H]1C(=O)N[C@@H](Cc1ccc(O)cc1)C(=O)N[C@H](C(=O)N[C@@H](Cc1cnc[nH]1)C(=O)N1CCC[C@H]1C(=O)N[C@@H](Cc1ccccc1)C(=O)O)CSSC[C@H](C(=O)N[C@H](Cc1cnc[nH]1)C(=O)N1CCC[C@@H]1C(=O)N[C@H](Cc1ccccc1)C(=O)O)NC(=O)[C@@H](Cc1ccc(O)cc1)NC(=O)[C@H]1C[C@H](CN1C(=O)[C@@H](CCCNC(=N)N)NC(=O)CNC)SS2 [bis c[Sar1-Arg2-MPc3-Tyr4-Cys5-His6-Pro7-Phe8]parallel]

- IC50: 86 nM
Structure (SMILES): CNCC(=O)N[C@@H](CCCN=C(N)N)C(=O)N[C@H]1CC(=O)NCCCC[C@@H](C(=O)N[C@@H](Cc2c[nH]cn2)C(=O)N2CCC[C@H]2C(=O)N[C@@H](Cc2ccccc2)C(=O)O)NC(=O)[C@H](Cc2ccc(O)cc2)NC1=O [c[Sar1-Arg2-Asp3-Tyr4-Lys5-His6-Pro7-Phe8]] (H-[Sar]RDYKHPF-OH; lactam 3-5)

- IC50: 9.1 nM
Structure (SMILES): CNCC(=O)N[C@@H](CCCNC(=N)N)C(=O)N[C@H]1CCSS[C@H]2C[C@@H](C(=O)N[C@@H](Cc3cnc[nH]3)C(=O)N3CCC[C@H]3C(=O)N[C@@H](Cc3ccccc3)C(=O)O)N(C2)C(=O)[C@H](Cc2ccc(O)cc2)NC1=O [c[Sar1-Arg2-Hcy3-Tyr4-MPc5-His6-Pro7-Phe8]] (H-[Sar]R[hCys]Y[Pro(4S-SH)]HPF-OH; disulfide 3-5)
